Measured values from patent US9617244B2, “Antibacterial quinoline derivatives” (JANSSEN PHARMACEUTICA NV, priority 2012, dated 2017).
Converted amounts (≈) assume the structure as drawn.

Test system: Mycobacterium smegmatis (ATCC607)
Assay: In-vitro anti-bacterial activity against strain M. Smegmatis ATCC607
Type: cell-based
Details: 90% inhibitory concentration for bacterial growth, 48 hours, Alamar Blue fluorescence
Experimental: D.1. In-Vitro Method for Testing Compounds for Anti-Bacterial Activity Against Strain M. Smegmatis ATCC607
Flat-bottom, sterile 96-well plastic microtiter plates were filled with 180 μl of sterile deionized water, supplemented with 0.25% BSA. Subsequently, stock solutions (7.8× final test concentration) of compounds were added in 45 μl volumes to a series of duplicate wells in column 2 so as to allow evaluation of their effects on bacterial growth. Serial five-fold dilutions (45 μl in 180 μl) were made directly in the microtiter plates from column 2 to 11 using a customised robot system (Zymark Corp., Hopkinton, Mass.). Pipette tips were changed after every 3 dilutions to minimize pipetting errors with high hydrophobic compounds. Untreated control samples with (column 1) and without (column 12) inoculum were included in each microtiter plate. Approximately 250 CFU per well of bacteria inoculum, in a volume of 100 μl in 2.8× Mueller-Hinton broth medium, was added to the rows A to H, except column 12. The same volume of broth medium without inoculum was added to column 12 in row A to H. The cultures were incubated at 37° C. for 48 hours in a humidified 5% CO2 atmosphere (incubator with open air valve and continuous ventilation). At the end of incubation, two days after inoculation, the bacterial growth was quantitated fluorometrically. Therefore Alamar Blue (10×) was added to all wells in a volume of 20 μl and plates were incubated for another 2 hours at […]
The fluorescence was read in a computer-controlled fluorometer (Cytofluor, Biosearch) at an excitation wavelength of 530 nm and an emission wavelength of 590 nm (gain 30). The percentage growth inhibition achieved by the compounds was calculated according to standard methods and expressed as IC90 (μg/ml) which defines the 90% inhibitory concentration for bacterial growth.

SMILES | IC90 MSM 607
CS(=O)(=O)c1ccc2[nH]c(=O)c(C(c3ccc(Cl)cc3)C3(O)CCNC(Cc4ccc(F)cc4)C3)cc2c1 (stereo not drawn) [Compound 58] | >13.94 µg/mL
CS(=O)(=O)c1ccc2[nH]c(=O)c(C(c3ccc(Cl)cc3)C3(O)CCNC(Cc4ccc(F)cc4)C3)cc2c1 (stereo not drawn) [Compound 59] | 5.55 µg/mL (≈ 10 µM)

Continued, values first:

IC90 MSM 607 | SMILES
3.98 µg/mL (≈ 7.92 µM) | CCCN(C)CC1CC(O)(C(c2ccc(Cl)cc2)c2cc3cc(Cl)ccc3nc2OC)CCN1 (stereo not drawn) [Compound 64]
4.36 µg/mL (≈ 7.9 µM) | COc1nc2ccc(Br)cc2cc1C(c1ccc(Cl)cc1)C1(O)CCNC(Cc2ccccc2)C1 (stereo not drawn) [Compound 77]
9.21 µg/mL (≈ 19.9 µM) | CC1CC(O)(C(c2ccc(Cl)cc2)c2cc3cc(Br)ccc3[nH]c2=O)CCN1 (stereo not drawn) [Compound 132]

Same assay, conditions: Mycolicibacterium smegmatis, ATCC607, 48 h, 90% inhibitory concentration for bacterial growth, Alamar Blue fluorescence, read-out: IC90 MSM 607

IC90 | SMILES
7.47 µg/mL (≈ 14.7 µM) | COc1nc2ccc(Br)cc2cc1C(n1cccn1)[C@@]1(O)CCN[C@H](Cc2ccccc2)C1 (stereo in doubt) [Compound 67]
> 10.4 µg/mL | COc1nc2ccccc2cc1C(c1ccc(Cl)cc1)C1(O)CCNC(CO)C1 (stereo not drawn) [Compound 10]
9.08 µg/mL (≈ 19.9 µM) | COc1nc2ccccc2cc1C(c1ccccc1)C1(O)CCNC(c2ccc(F)cc2C)C1 (stereo not drawn) [Compound 16]
10 µg/mL (≈ 17.7 µM) | COc1nc2ccc(Br)cc2cc1C(c1ccc(Cl)cc1)C1(O)CCN(C)C(Cc2ccccc2)C1 (stereo not drawn) [Compound 18]
3.76 µg/mL (≈ 7.95 µM) | COc1nc2ccccc2cc1C(c1ccc(Cl)cc1)C1(O)CCNC(Cc2ccccc2)C1 (stereo not drawn) [Compound 19]
> 15 µg/mL | COc1nc2ccc(Cl)cc2cc1C(c1ccc(Cl)cc1)C1(O)CCN(C(C)c2ccccc2)C(c2cccnc2)C1 (stereo not drawn) [Compound 22]
> 19.9 µg/mL | COc1nc2ccc(Br)cc2cc1C(c1ccc(Cl)cc1)C1(O)CCN(Cc2ccccc2)CC1C (stereo not drawn) [Compound 25]
7.29 µg/mL (≈ 15.8 µM) | COc1nc2ccccc2cc1C(c1ccc(Cl)cc1)C1(O)CCNC(c2cccnc2)C1 (stereo not drawn) [Compound 27]
1.15 µg/mL (≈ 2.07 µM) | COc1nc2ccc(SC)cc2cc1C(c1cccc(Cl)c1)C1(O)CCNC(Cc2ccc(F)cc2F)C1 (stereo not drawn) [Compound 50]

Test system: Staphylococcus aureus (ATCC29213)
Assay: In-vitro anti-bacterial activity, microtitre plate assay, IC90 determination (non-mycobacterial strains)
Type: cell-based
Details: 90% inhibitory concentration for bacterial growth, 24 hours, resazurin fluorescence
Experimental: D.2. In-Vitro Method for Testing Compounds for Anti-Bacterial Activity Against Various Non-Mycobacterial Strains
Preparation of Bacterial Suspensions for Susceptibility Testing:
The bacteria used in this study were grown overnight in flasks containing 100 ml Mueller-Hinton Broth (Becton Dickinson—cat. no. 275730) in sterile de-ionized water, with shaking, at 37° C. Stocks (0.5 ml/tube) were stored at −70° C. until use. Bacteria titrations were performed in microtiter plates to detect the TCID50, in which TCID50 represents the dilution that gives rise to bacterial growth in 50% of inoculated cultures. In general, an inoculum level of approximately 100 TCID50 was used for susceptibility testing.
Anti Bacterial Susceptibility Testing: IC90 Determination
Flat-bottom, sterile 96-well plastic microtiter plates were filled with 180 μl of sterile deionized water, supplemented with 0.25% BSA. Subsequently, stock solutions (7.8× final test concentration) of compounds were added in 45 μl volumes in column 2 Serial five-fold dilutions (45 μl in 180 μl) were made directly in the microtiter plates from column 2 to reach column 11. Untreated control samples with (column 1) and without (column 12) inoculum were included in each microtiter plate. Depending on the bacteria type, approximately 10 to 60 CFU per well of bacteria inoculum (100 TCID50), in a volume of 100 μl in 2.8× Mueller-Hinton broth medium, was added to the rows A to H, except column 12. The same volume of broth medium without inoculum was added to column 12 in row A to H. The cultures were incubated at 37° C. for 24 hours under a normal atmosphere (incubator with open air valve and continuous ventilation). At the end of incubation, one day after inoculation, the bacterial growth was quantitated fluorometrically. Therefore resazurin (0.6 mg/ml) was added in a volume of 20 μl to all wells 3 hours after inoculation, and the plates were re-incubated overnight. A change in colour from blue to pink indicated the growth of bacteria. The fluorescence was read in a computer-controlled fluorometer (Cytofluor Biosearch) at an excitation wavelength of 530 nm and an emission wavelength of 590 nm. The % growth inhibition achieved by the compounds was calculated according to standard methods. The IC90 (expressed in μg/ml) was defined as the 90% inhibitory concentration for bacterial growth.

SMILES | IC90 STA B29213
COc1nc2ccc(Br)cc2cc1C(c1ccc(Cl)cc1)C1(O)CCN(Cc2ccccc2)CC1C (stereo not drawn) [Compound 25] | >19.87 µg/mL
COc1nc2ccc(Br)cc2cc1C(c1ccc(Cl)cc1)C1(O)CCN(Cc2ccccc2)CC1C (stereo not drawn) [Compound 26] | >44.79 µg/mL
CS(=O)(=O)c1ccc2[nH]c(=O)c(C(c3ccc(Cl)cc3)C3(O)CCNC(Cc4ccc(F)cc4)C3)cc2c1 (stereo not drawn) [Compound 58] | >13.94 µg/mL
CS(=O)(=O)c1ccc2[nH]c(=O)c(C(c3ccc(Cl)cc3)C3(O)CCNC(Cc4ccc(F)cc4)C3)cc2c1 (stereo not drawn) [Compound 59] | 6.99 µg/mL (≈ 12.6 µM)

Further lines, results first:

IC90 STA B29213 | SMILES
7.93 µg/mL (≈ 15.8 µM) | CCCN(C)CC1CC(O)(C(c2ccc(Cl)cc2)c2cc3cc(Cl)ccc3nc2OC)CCN1 (stereo not drawn) [Compound 64]
5.49 µg/mL (≈ 9.95 µM) | COc1nc2ccc(Br)cc2cc1C(c1ccc(Cl)cc1)C1(O)CCNC(Cc2ccccc2)C1 (stereo not drawn) [Compound 77]
13.44 µg/mL (≈ 25.1 µM) | COc1nc2ccc(F)cc2cc1C(c1ccc(Cl)cc1)C1(O)CCN(C(C)c2ccccc2)C(CO)C1 (stereo not drawn) [Compound 437]
8.61 µg/mL (≈ 15.8 µM) | COc1nc2ccc(Cl)cc2cc1C(c1ccc(Cl)cc1)C1(O)CCNC(c2ccc3ccccc3c2)C1 (stereo not drawn) [Compound 440]
12.17 µg/mL (≈ 22.4 µM) | COc1nc2ccc(Cl)cc2cc1C(c1ccc(Cl)cc1)C1(O)CCNC(c2ccc3ccccc3c2)C1 (stereo not drawn) [Compound 441]

Same assay, conditions: Staphylococcus aureus, ATCC29213, 24 h, 90% inhibitory concentration for bacterial growth, resazurin fluorescence, read-out: IC90 STA B29213

SMILES | IC90
COc1nc2ccccc2cc1C(c1ccc(Cl)cc1)C1(O)CCNC(CO)C1 (stereo not drawn) [Compound 10] | > 10.4 µg/mL
COc1nc2ccccc2cc1C(c1ccccc1)C1(O)CCNC(c2ccc(F)cc2C)C1 (stereo not drawn) [Compound 16] | 7.21 µg/mL (≈ 15.8 µM)
COc1nc2ccc(Br)cc2cc1C(c1ccc(Cl)cc1)C1(O)CCN(C)C(Cc2ccccc2)C1 (stereo not drawn) [Compound 18] | 20 µg/mL (≈ 35.3 µM)
COc1nc2ccccc2cc1C(c1ccc(Cl)cc1)C1(O)CCNC(Cc2ccccc2)C1 (stereo not drawn) [Compound 19] | 5.95 µg/mL (≈ 12.6 µM)
COc1nc2ccc(Cl)cc2cc1C(c1ccc(Cl)cc1)C1(O)CCN(C(C)c2ccccc2)C(c2cccnc2)C1 (stereo not drawn) [Compound 22] | > 15 µg/mL
COc1nc2ccccc2cc1C(c1ccc(Cl)cc1)C1(O)CCNC(c2cccnc2)C1 (stereo not drawn) [Compound 27] | 11.6 µg/mL (≈ 25.1 µM)
COc1nc2ccc(SC)cc2cc1C(c1cccc(Cl)c1)C1(O)CCNC(Cc2ccc(F)cc2F)C1 (stereo not drawn) [Compound 50] | 1.15 µg/mL (≈ 2.07 µM)

Further lines, results first:

IC90 | SMILES
14.9 µg/mL (≈ 29.4 µM) | COc1nc2ccc(Br)cc2cc1C(n1cccn1)[C@@]1(O)CCN[C@H](Cc2ccccc2)C1 (stereo in doubt) [Compound 67]
4.11 µg/mL (≈ 7.94 µM) | COc1nc2ccc(Br)cc2cc1C(c1ccccc1)C1(O)CCNC(Cc2ccccc2)C1 (stereo not drawn) [Compound 72]
4.37 µg/mL (≈ 7.94 µM) | COc1nc2ccc(-c3cccnc3)cc2cc1C(c1ccc(Cl)cc1)C1(O)CCNC(Cc2ccccc2)C1 (stereo not drawn) [Compound 80]
